Experimental data reported in US11759518B2, “Medicine for treating cancer by administering a toll-like receptor agonist and LAG-3 IgG fusion protein” (NEC CORPORATION, priority 2016, dated 2023).

Experiments:
P815 tumor cells = assay: Suppression of tumor growth by immunoadjuvant combination, P815 model; format: in vivo, mouse; conditions: DBA/2 mice with P815 tumor, PIA CTL i.v. Day 7
Description: The following substances were used as adjuvants.
Poly I:C (TLR3 agonist) (Invivogen, SanDiego, USA)
RIBOXXOL (TLR3 agonist) (Riboxx, Radebeul, Germany)
MPL (TLR4 agonist) (Invivogen, SanDiego, USA)
Imiquimod (TLR7/8 agonist) (Invivogen, SanDiego, USA)
CpG (TLR9 agonist) (Invivogen, SanDiego, USA)
LAG-3Ig (Adipogen, SanDiego, USA)
P815 tumor cells were subcutaneously inoculated to DBA/2 mice in an amount of 5×10^5 cells per mouse to prepare cancer model mice. The day of inoculation was specified as Day 0. On Day 7, PIA CTL (2.5×10^5 cells per mouse) were intravenously injected. Day 8 and Day 15, an admixture of PIA peptide (50 μg per mouse) and an adjuvant in PBS was subcutaneously injected. Mice were divided into 9 groups each consisting of 4 or 5 mice and the following adjuvants were used respectively.
Group 1: PIA peptide alone (control)
(§1) Group 2: Poly I:C (50 μg/mouse)
Group 3: Poly I:C (50 μg/mouse)+LAG-3Ig (1 μg/mouse)
Group 4: No PIA peptide, Poly I:C (50 μg/mouse)+LAG-3Ig (1 μg/mouse) alone
Group 5: RIBOXXOL (100 μg/mouse) Group 6: RIBOXXOL (100 μg/mouse)+LAG-3Ig (1 μg/mouse)
Group 7: MPL (10 μg/mouse)+LAG-3Ig (1 μg/mouse) Group 8: Imiquimod (50 μg/mouse)+LAG-3Ig (1 μg/mouse)
Group 9: CpG (10 μg/mouse)+LAG-3Ig (1 μg/mouse)

B16-F10 melanoma cells = assay: Tumor growth inhibitory effect of immuno-adjuvant combination in B16-F10 melanoma inoculation model mice; format: in vivo, mouse; conditions: C57BL/6 mice with B16-F10 melanoma
Description: To C57BL/6 mice, B16-F10 melanoma cells (1×10^5 cells per mouse) were subcutaneously inoculated to prepare cancer model mice. The day of inoculation was specified as Day 0. On Day 5 and Day 12, twice in total, an admixture of gp100 peptide (50 μg per mouse) and an adjuvant in PBS was subcutaneously injected. The following adjuvants were used in respective mice groups.
Group 1: IFA (50 μL/mouse)
as §1
Group 3: LAG-3Ig (1 μg/mouse)
Group 4: LAG-3Ig (1 μg/mouse)+Poly I:C (50 μg/mouse)

[1] = system: P815 cells (DBA/2mouse-derived mouse mastocytoma); assay: Comparison of adjuvants in a cancer vaccine with PIA peptide, tumor size and survival; format: in vivo; conditions: DBA/2 mice with P815 tumor, 5 mice per group; PIA CTL i.v. Day 8; adjuvant admixed with PIA peptide 50 μg per mouse s.c. Day 9 and Day 16
Description: In accordance with the protocol shown in FIG. 1, the effects of adjuvants in cancer vaccines using a cancer-antigen derived peptide were compared.
As cancer model mice, DBA/2 mice, to which P815 cells (DBA/2mouse-derived mouse mastocytoma) were grafted, were put in use.
As a cancer-antigen derived peptide, a peptide (hereinafter referred to as “PIA peptide”) consisting of a partial sequence of PIA protein was used, which is a tumor antigen of P815 tumor and known to be restrictively presented by an MHC H-2Ld. The amino acid sequence of PIA peptide are represented by LPYLGWLVF (SEQ. ID No: 40).
As PIA CTL, a T cell expressing a T cell receptor and recognizing PIA peptide was used. […] Based on the positive ratio, the number of PIA-CTL cells was determined and administered.
As the adjuvants, the following substances were used.
P815 tumor cells were subcutaneously inoculated to DBA/2 mice in an amount of 5×10^5 cells per mouse. The day of inoculation was specified as Day 0. On Day 8, PIA CTL (2.5×10^5 cells per mouse) were intravenously injected. On Day 9 and Day 16, an admixture of PIA peptide (50 μg per mouse) and an adjuvant in PBS was subcutaneously injected. Mice were divided into 9 groups each consisting of 5 mice and the following adjuvants were used, respectively.
Group 2: IFA (50 μL/mouse)
Group 3: PT (1×10^8/mouse)
Group 4: Poly I:C (50 μg/mouse) […]

Row | Substance | mice died up to Day 40 (P815 tumor cells; s.c. injection Day 8 and Day 15) | mice survived (P815 tumor cells; read against Day 40 of the preceding sentence, adjuvant admixed with PIA peptide (unless stated) s.c. Day 8 and Day 15) | effect of extending survival time (B16-F10 melanoma cells; Groups 2 and 3 compared to Group 1 (IFA), Group 4 compared to Groups 1, 2 and 3) | day on which five mice all died (B16-F10 melanoma cells; adjuvant admixed with gp100 peptide 50 μg s.c. Day 5 and Day 12) | number of mice survived until Day 70 without increasing tumor size [1]
1 | LPYLGWLVF [PIA peptide alone] | 5 out of 5 |  |  |  | 
2 | Polyinosinic:polycytidylic acid [Poly I:C] |  | Four out of 5 | a significant effect of extending survival time was not observed | 35 days | 1
